The subject of test [1] is Canis familiaris. Description: Peak percent change in contractile force produced by the administration of 1 mg/kg intravenously in anesthetized dog. Type of test: functional, Canis lupus familiaris. To be noted: route intravenous.
Test [2] relates to Canis familiaris. Description: Inotropic effect in anesthetized dog. Type of test: functional. The conditions noted are these: Canis lupus familiaris.
Test [3] has as its system Rattus norvegicus. Description: 25% increase in left ventricular contractility (dP/dtmax) on iv administration in anesthetized rat. Type of test: functional. The conditions noted are these: Heart left ventricle.
Test [4] deals with T1, Phosphodiesterase 4 (Homo sapiens, UniProt P27815+Q08499+Q07343+Q08493). Description: Inhibition of canine kidney Phosphodiesterase 4 at 150 uM. To be noted: Canis lupus familiaris, target entry is the homologue from another species.
The test system of test [5] is Rattus norvegicus. Description: 25% increase in left ventricular contractility (dP/dtmax) on iv administration in anesthetized rat; not active. The test is classed as functional, organism-based. To be noted: Heart left ventricle.
Test [6] relates to Canis familiaris. Description: 25% increase in left ventricular contractility (dP/dtmax) in anesthetized dog on iv administration. The test is classed as functional. The conditions noted are these: Canis lupus familiaris, Heart left ventricle.
Test [7] deals with Rattus norvegicus. Description: 25% increase in left ventricular contractility (dP/dtmax) on iv administration in anesthetized rat; Not active. Type of test: functional, organism-based. To be noted: Heart left ventricle.
In test [8] the test system is Rattus norvegicus. Description: Peak percent change in contractile force produced by the administration of 1 mg/kg intravenously in ansthetetized rat. The test is classed as functional. To be noted: route intravenous.
Test [9] deals with Canis familiaris. Description: Peak percent change in contractile force produced by the administration of 1 mg/kg intravenously in anesthetized dog; Not active. The conditions noted are these: Canis lupus familiaris.
Test [10] deals with Rattus norvegicus. Description: 25% increase in left ventricular contractility (dP/dtmax) on iv administration in anesthetized rat; Not active at 3 mg/kg. The test is classed as functional, organism-based. Also noted: dose 3 mg/kg. To be noted: Heart left ventricle.
Test [11] has as its system Canis familiaris. Description: Peak percent change in contractile force produced by 1 mg/kg administered intravenously in anesthetized dog. Type of test: functional, Canis lupus familiaris. To be noted: route intravenous.
For test [12], the system named is Canis familiaris. Description: Peak percent change in contractile force produced after iv administration at 0.3 mg/kg in anesthetized dog. The test is classed as functional, Canis lupus familiaris.
Test [13] concerns Rattus norvegicus. Description: 25% increase in left ventricular contractility (dP/dtmax) after iv administration in anesthetized rat. The test is classed as functional. To be noted: Heart left ventricle.
The subject of test [14] is Canis familiaris. Description: Increased heart rate in conscious dogs on oral administration at 10 mg/kg. The test is classed as functional, Canis lupus familiaris.
In test [15] the target is T1, Phosphodiesterase 4. Description: Inhibition of canine heart Phosphodiesterase 4. To be noted: target entry is the homologue from another species. Type of test: protein assay, Canis lupus familiaris.
In test [16] the target is T1, Phosphodiesterase 4. Description: (§1) Inhibition of canine kidney Phosphodiesterase 4. To be noted: target entry is the homologue from another species. Type of test: protein assay, Canis lupus familiaris.
The subject of test [17] is Canis familiaris. Description: Inotropic activity in anesthetized dog. To be noted: Canis lupus familiaris. The test is classed as functional.
For test [18], the system named is Canis familiaris. Description: Peak percent change in contractile force produced after iv administration at 1 mg/kg in anesthetized dog.
The subject of test [19] is Rattus norvegicus. Description: 25% increase in left ventricular (dP/dtmax) after iv administration in anesthetized rat; Not active at 3 mg/kg. Further details: dose 3 mg/kg. Type of test: functional, organism-based. To be noted: Heart left ventricle.
Test [20] concerns Canis familiaris. Description: 25% increase in left ventricular contractility (dP/dtmax) on iv administration in anesthetized dog. The test is classed as functional. The conditions noted are these: Canis lupus familiaris, Heart left ventricle.
The test system of test [21] is Canis familiaris. Description: Peak percent change in contractile force produced after iv administration at 0.3 mg/kg in ansthetetized dog. Type of test: functional, Canis lupus familiaris.
Test [22] has as its target T1, Phosphodiesterase 4. The description is as §1. Type of test: protein assay. The conditions noted are these: Canis lupus familiaris; target entry is the homologue from another species; concentration not given here.
In test [23] the test system is Canis familiaris. Description: 25% increase in left ventricular contractility (dP/dtmax) after iv administration in anesthetized dog; Not active. The test is classed as functional. To be noted: Canis lupus familiaris, Heart left ventricle.
The test system of test [24] is Canis familiaris. Description: Peak percent change in contractile force produced by the administration of 1 mg/kg intravenously in anesthetized dog; not active. Type of test: functional, organism-based. Also noted: dose 1 mg/kg. The conditions noted are these: Canis lupus familiaris; at 1 mg/kg.
The subject of a further test is Canis lupus familiaris. Description: 25% increase in left ventricular contractility (dP/dtmax) after iv administration in anesthetized dog. The conditions noted are these: Heart left ventricle.

The structures appear in SMILES notation. Activity calls are given as the source filed them. No cut-off for these calls is given here.

56 compounds from ChEMBL document CHEMBL1124950, “Synthesis and cardiotonic activity of novel biimidazoles” (J Med Chem, 1990) can be followed below.

On to `CSc1ccc(C(=O)c2[nH]c(=O)[nH]c2C)cc1` [ENOXIMONE], for which the Change in the test on Canis familiaris [1] turned out to be 73%. Also, the ED25 with Canis familiaris [2] was found to be 0.46 mg/kg; in the test with Rattus norvegicus [3], 1.4 mg/kg. At Phosphodiesterase 4 [4], the inhibition (usually the share of the control response that was lost under treatment) was determined as 34%.

Take `N#Cc1c[nH]c(-c2cc[nH]n2)n1`: the Change in the test with Canis familiaris [1] is reported as -4%. For the same compound, in the test on Rattus norvegicus [5], the ED25 result is “inactive”.

On to `c1c[nH]c(-c2ncc[nH]2)n1`, for which the ED25 in the test with Rattus norvegicus [3] turned out to be 0.24 mg/kg.

`N#Cc1c[nH]c(-c2nc(-c3ccc(C(F)(F)F)cc3)c[nH]2)n1` gave an ED25 with Canis familiaris [6] of 0.26 mg/kg.

Regarding `CSc1c[nH]c(-c2ncc[nH]2)n1`, the Change in the test on Canis familiaris [1] stood at 4%.

Take `Cc1c[nH]c(-c2ncc[nH]2)n1`: the ED25 entry in the test on Rattus norvegicus [5] is “inactive”.

Regarding `FC(F)(F)c1c[nH]c(-c2ncc[nH]2)n1`, the ED25 entry in the test on Rattus norvegicus [7] was “inactive”.

In the case of `N#Cc1c[nH]c(-c2cccnc2)n1`, in the test on Canis familiaris [1], the Change is listed as 31%. Further, the ED25 result with Rattus norvegicus [5] was “inactive”.

Turning to `Cn1ccnc1-c1ncc(C#N)n1C`, the Change with Rattus norvegicus [8] came to 13%.

Consider `CN(C)Cc1ccc(-c2nc(C#N)c[nH]2)o1`, for which, in the test on Canis familiaris [9], the Change entry was “inactive”.

`C[Si](C)(C)CCOCn1ccnc1-c1nccn1COCC[Si](C)(C)C`: the ED25 result with Rattus norvegicus [10] is “inactive”.

In the case of `Cc1ccsc1-c1nc(C#N)c[nH]1`, in the test on Rattus norvegicus [5], the ED25 result was “inactive”.

With `Cn1c(Cl)cnc1-c1nc(C#N)c[nH]1`, the Change with Canis familiaris [1] is reported as 11%.

For `N#Cc1c[nH]c(-c2nc(Br)c(Br)[nH]2)n1`, in the test with Canis familiaris [11], the Change amounted to 96%.

With `COC(=O)c1c[nH]c(-c2ncc[nH]2)n1`, in the test with Rattus norvegicus [5], the ED25 result was “inactive”.

On to `C[C@@H]1C(=O)NC2=Nc3cccc(Cl)c3CN21` [QUAZINONE], for which the Change in the test with Canis familiaris [12] turned out to be 47%.

For `FC(F)(F)c1c[nH]c(-c2c[nH]cn2)n1`, in the test on Canis familiaris [1], the Change worked out at 0%.

In the case of `Clc1c[nH]c(-c2nc(Cl)c[nH]2)n1`, the ED25 with Rattus norvegicus [13] amounted to 0.7 mg/kg.

As for `N#Cc1c[nH]c(-c2ncc[nH]2)n1`, the “Increase in heart rate” value in the test on Canis familiaris [14] turned out to be 45 beats min-1. Besides, the IC50 – broadly, the concentration needed to halve the response being measured – against Phosphodiesterase 4 [15] was determined as 36.7 µM; at Phosphodiesterase 4 [16], 339 µM. The compound also came in with an ED25 in the test on Canis familiaris [17] of 0.16 mg/kg. Further, the Change in the test with Canis familiaris [18] came to 60%.

As to `COc1ccc(-c2c[nH]c(-c3nc(C#N)c[nH]3)n2)cc1`, the Change in the test with Canis familiaris [1] amounted to 106%. In addition, the ED25 in the test on Canis familiaris [6] worked out at 0.36 mg/kg.

Take `N#Cc1c[nH]c(-c2nc(C#N)c[nH]2)n1`: in the test with Canis familiaris [6], the ED25 was determined as 0.18 mg/kg.

For the compound `N#Cc1c[nH]c(-c2nccn2-c2ccccc2)n1`, in the test on Canis familiaris [1], the Change is listed as 0%.

In the case of `Cn1cc(C#N)nc1-c1ncc[nH]1`, the ED25 in the test on Canis familiaris [6] turned out to be 0.17 mg/kg.

`N#Cc1c[nH]c(-c2ccco2)n1`: the ED25 entry with Rattus norvegicus [5] is “inactive”.

Take `Brc1c[nH]c(-c2nc(Br)c[nH]2)n1`: the ED25 result in the test on Rattus norvegicus [19] was “inactive”.

Consider `N#Cc1c[nH]c(-c2cccs2)n1`, for which the ED25 entry with Rattus norvegicus [5] is “inactive”.

In the case of `N#Cc1c[nH]c(-c2nc(-c3ccccc3)c[nH]2)n1`, the ED25 in the test on Canis familiaris [20] was found to be 0.89 mg/kg.

In the case of `Nc1cc(-c2ccncc2)c[nH]c1=O` [INAMRINONE], the Change in the test with Canis familiaris [21] is on record as 19%. Further, at Phosphodiesterase 4 [22], the inhibition worked out at 24%.

As for `N#Cc1c[nH]c(-c2nc(Cl)c[nH]2)n1`, the Change in the test with Canis familiaris [11] is 95%.

With `c1c[nH]c(-c2nc(-c3nn[nH]n3)c[nH]2)n1`, in the test with Canis familiaris [1], the Change is on record as 0%. The ED25 entry with Rattus norvegicus [5] is “inactive”.

Take `N#Cc1c[nH]c(-c2ccc(-n3ccnc3)cc2)n1`: the Change in the test on Canis familiaris [1] was found to be 17%.

For the compound `N#Cc1c[nH]c(-c2c[nH]cn2)n1`, the Change with Canis familiaris [1] was 25%.

As to `C[S+]([O-])c1c[nH]c(-c2ncc[nH]2)n1` (configuration not stated), the Change in the test on Canis familiaris [1] is 1%.

In turn, `Cc1c[nH]c(-c2nc(C#N)c[nH]2)n1` yielded an ED25 with Canis familiaris [23] of 0.63 mg/kg.

As for `Brc1c[nH]c(-c2ncc[nH]2)n1`, the ED25 in the test on Rattus norvegicus [13] worked out at 5.5 mg/kg.

As to `O=Cc1c[nH]c(-c2nc(C=O)c[nH]2)n1`, the ED25 result in the test on Rattus norvegicus [19] is “inactive”.

Take `C=Cn1ccnc1-c1nc(C#N)c[nH]1`: in the test with Canis familiaris [1], the Change was determined as 41%.

Regarding `OCc1c[nH]c(-c2ncc[nH]2)n1`, in the test on Canis familiaris [1], the Change is recorded as 0%.

With `N#Cc1c[nH]c(-c2nc(C(F)(F)F)c[nH]2)n1`, the ED25 in the test on Canis familiaris [6] came to 0.33 mg/kg.

Turning to `CCn1ccnc1-c1nc(C#N)c[nH]1`, the Change with Canis familiaris [1] was 41%.

On to `O=Cc1c[nH]c(-c2ncc[nH]2)n1`, for which the ED25 result with Rattus norvegicus [19] is “inactive”.

As to `N#Cc1c[nH]c(-c2csc(NC(=N)N)n2)n1`, the Change result with Canis familiaris [9] was “inactive”.

In the case of `N#Cc1c[nH]c(-c2cn[nH]c2)n1`, the Change entry with Canis familiaris [24] was “inactive”. Besides, in the test with Rattus norvegicus [5], the ED25 result was “inactive”.

On to `Cc1[nH]c(=O)c(C#N)cc1-c1ccncc1` [MILRINONE], for which the Change in the test with Canis familiaris [1] stood at 52%; with Canis familiaris [21], 110%. Moreover, the ED25 in the test on Canis familiaris [2] was determined as 0.06 mg/kg; in the test on Rattus norvegicus [3], 0.3 mg/kg.

As for `O=C(O)c1c[nH]c(-c2ncc[nH]2)n1`, in the test with Rattus norvegicus [5], the ED25 result is “inactive”.

In the case of `N#Cc1[nH]cnc1-c1ncc[nH]1`, in the test with Canis familiaris [1], the Change came to 0%.

For the compound `Cn1c(C#N)cnc1-c1ncc[nH]1`, the Change with Canis familiaris [1] came out at 3%.

As for `FC(F)(F)c1c[nH]c(-c2nc(Br)c[nH]2)n1`, the ED25 result in the test with Rattus norvegicus [19] was “inactive”.

In the test with Canis lupus familiaris, `N#Cc1c[nH]c(-c2nc(Br)c[nH]2)n1` came in with an ED25 of 0.2 mg/kg.

Turning to `N#Cc1c[nH]c(-c2ccc(Br)s2)n1`, in the test with Rattus norvegicus [5], the ED25 result is “inactive”.

Take `Clc1c[nH]c(-c2ncc[nH]2)n1`: the ED25 entry in the test on Rattus norvegicus [19] is “inactive”.

In the case of `NC(=O)c1c[nH]c(-c2ncc[nH]2)n1`, the ED25 result in the test with Rattus norvegicus [5] was “inactive”.

In the case of `N#Cc1c[nH]c(-c2ccc(-c3nc(C#N)c[nH]3)cc2)n1`, in the test on Canis familiaris [1], the Change was 8%.

Take `NCc1c[nH]c(-c2ncc[nH]2)n1`: the ED25 entry in the test with Rattus norvegicus [5] was “inactive”.

Take `N#Cc1c[nH]c(-c2nccn2Cc2ccccc2)n1`: the Change in the test with Canis familiaris [1] is listed as 2%.

For `Cn1ccnc1-c1nc(C#N)c[nH]1`, in the test on Canis familiaris [1], the Change is listed as 29%.
